Measurements taken from ChEMBL document CHEMBL1949517, “Stylissamide X, a new proline-rich cyclic octapeptide as an inhibitor of cell migration, from an Indonesian marine sponge of Stylissa sp” (Bioorg Med Chem Lett, 2012).
Calls of active or inactive are those of the source. The rule behind the calls is not given here. Where a SMILES comes first, the peptide text is derived from it.

Key:
[1] = Cytotoxicity against human HeLa cells assessed as cell viability at 10 uM after 24 hrs by MTT assay; assay type: cell-based; settings: read-out: Activity
HeLa [2] = assay: Anti-cell migration activity at EGF-induced human HeLa cells at 0.1 to 10 uM after 24 hrs by Giemsa-staining based chemotaxicell chamber assay; assay type: functional
HeLa [3] = assay: Anti-cell migration activity at human HeLa cells at 0.1 to 10 uM after 24 hrs by wound healing assay; assay type: functional, cell-based

In the case of `CC[C@H](C)[C@@H]1NC(=O)[C@@H]2CCCN2C(=O)[C@H]([C@@H](C)O)NC(=O)[C@H](CC(C)C)NC(=O)[C@@H]2CCCN2C(=O)[C@H](Cc2ccccc2)NC(=O)[C@H](Cc2c[nH]c3ccccc23)NC(=O)[C@@H]2CCCN2C1=O` [STYLISSAMIDE X] (cyclo(FPLTPIPW)), the viability at 24 h, 10 µM [1] was > 75%, the Activity (HeLa [2]) was “Active” and the Activity (HeLa [3]) was “Active”.
